Test results reported in patent US20120142667A1, “PYRIMIDINE DERIVATIVES AS ZAP-70 INHIBITORS” (priority 2009, published 2012).
Counter-ions that a name gives are not always drawn.

Molecular target: T1, ZAP-70 (Homo sapiens, UniProt P43403)
T1 construct: endogenous in cells; host or cells: cell lysate
T1 sequence (P43403 1-619): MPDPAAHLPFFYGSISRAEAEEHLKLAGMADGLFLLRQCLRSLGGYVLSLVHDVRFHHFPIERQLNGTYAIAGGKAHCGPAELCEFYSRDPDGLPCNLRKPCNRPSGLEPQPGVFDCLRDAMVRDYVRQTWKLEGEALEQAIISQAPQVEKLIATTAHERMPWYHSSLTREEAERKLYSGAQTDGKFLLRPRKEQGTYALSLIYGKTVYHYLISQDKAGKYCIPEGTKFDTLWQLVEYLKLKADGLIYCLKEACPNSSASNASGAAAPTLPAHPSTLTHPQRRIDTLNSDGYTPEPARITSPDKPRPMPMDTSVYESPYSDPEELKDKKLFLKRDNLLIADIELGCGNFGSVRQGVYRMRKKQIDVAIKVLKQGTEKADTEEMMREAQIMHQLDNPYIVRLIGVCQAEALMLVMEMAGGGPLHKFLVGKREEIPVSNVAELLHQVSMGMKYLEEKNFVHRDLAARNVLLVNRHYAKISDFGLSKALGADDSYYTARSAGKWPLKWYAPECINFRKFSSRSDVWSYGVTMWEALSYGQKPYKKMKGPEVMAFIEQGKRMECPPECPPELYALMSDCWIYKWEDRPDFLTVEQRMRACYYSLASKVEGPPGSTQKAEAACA
Assay: ZAP-70 kinobeads assay
Assay type: binding
Settings: cell lysate
Procedure: The compounds of the present invention as described in the previous examples can be tested in the ZAP-70 kinobeads assay as described (EP-A 1862802 and WO-A 2007/137867). Briefly, test compounds (at various concentrations) and the affinity matrix with the immobilized aminopyrido-pyrimidine ligand 24 are added to cell lysate aliquots and allowed to bind to the proteins in the lysate sample. After the incubation time the beads with captured proteins are separated from the lysate. Bound proteins are then eluted and the presence ZAP-70 is detected and quantified using a specific antibody in a dot blot procedure and the Odyssey infrared detection system.

Row | SMILES | IC50
1 | COc1ccc(Nc2nc(Nc3ccc(F)c(F)c3OC)ncc2Cl)c(NS(C)(=O)=O)c1 [Example 46, N-(2-(5-chloro-2-(3,4-difluoro-2-methoxyphenylamino)pyrimidin-4-ylamino)-5-methoxyphenyl)methanesulfonamide] | 1000 to 10000 nM
2 | COc1ccc(Nc2nc(Nc3cc(OC)c(OC)cc3Cl)ncc2Cl)c(NS(C)(=O)=O)c1 [Example 53, N-(2-(5-chloro-2-(2-chloro-4,5-dimethoxyphenylamino)pyrimidin-4-ylamino)-5-methoxyphenyl)methanesulfonamide] | 100 to 1000 nM
3 | COc1ccc(Nc2nc(Nc3cccc(OC)c3C)ncc2Cl)c(NS(C)(=O)=O)c1 [Example 54, N-(2-(5-chloro-2-(3-methoxy-2-methylphenylamino)pyrimidin-4-ylamino)-5-methoxyphenyl)methanesulfonamide] | 100 to 1000 nM
4 | COc1ccc(Nc2nc(Nc3cc(C)ccc3OC)ncc2Cl)c(NS(C)(=O)=O)c1 [Example 56, N-(2-(5-chloro-2-(2-methoxy-5-methylphenylamino)pyrimidin-4-ylamino)-5-methoxyphenyl)methanesulfonamide] | 100 to 1000 nM
5 | COc1ccc(Nc2nc(Nc3cc(OC)c(F)cc3F)ncc2Cl)c(NS(C)(=O)=O)c1 [Example 58, N-(2-(5-chloro-2-(2,4-difluoro-5-methoxyphenylamino)pyrimidin-4-ylamino)-5-methoxyphenyl)methanesulfonamide hydrochloride] | 100 to 1000 nM
6 | COc1ccc(Nc2nc(Nc3ccc(C)cc3C)ncc2Cl)c(NS(C)(=O)=O)c1 [Example 59, N-(2-(5-chloro-2-(2,4-dimethylphenylamino)pyrimidin-4-ylamino)-5-methoxyphenyl)methanesulfonamide hydrochloride] | 100 to 1000 nM
7 | COc1ccc(Nc2nc(Nc3cccc(F)c3F)ncc2Cl)c(NS(C)(=O)=O)c1 [Example 60, N-(2-(5-chloro-2-(2,3-difluorophenylamino)pyrimidin-4-ylamino)-5-methoxyphenyl)methanesulfonamide hydrochloride] | 1000 to 10000 nM
8 | COc1ccc(Nc2nc(Nc3cccc(F)c3OC)ncc2Cl)c(NS(C)(=O)=O)c1 [Example 61, N-(2-(5-chloro-2-(3-fluoro-2-methoxyphenylamino)pyrimidin-4-ylamino)-5-methoxyphenyl)methanesulfonamide hydrochloride] | 1000 to 10000 nM
9 | COc1ccc(Nc2nc(Nc3ccc(C)cc3OC)ncc2Cl)c(NS(C)(=O)=O)c1 [Example 62, N-(2-(5-chloro-2-(2-methoxy-4-methylphenylamino)pyrimidin-4-ylamino)-5-methoxyphenyl)methanesulfonamide hydrochloride] | 100 to 1000 nM
10 | COc1ccc(Nc2nc(Nc3cc(OCCN)ccc3F)ncc2Cl)c(NS(C)(=O)=O)c1 [Example 66, N-(2 (2 (5 (2 aminoethoxy)-2-fluorophenylamino)-5-chloropyrimidin-4-ylamino)-5-methoxyphenyl)methanesulfonamide] | 100 to 1000 nM
11 | COc1ccc(Nc2nc(Nc3cncc(OC)c3OC)ncc2Cl)c(NS(C)(=O)=O)c1 [Example 81, N-(2-(5-chloro-2-(4,5-dimethoxypyridin-3-ylamino)pyrimidin-4-ylamino)-5-methoxyphenyl)methanesulfonamide] | 1000 to 10000 nM
12 | COc1ccc(Nc2nc(Nc3c[nH]c(=O)cc3C)ncc2Cl)c(NS(C)(=O)=O)c1 [Example 82, N-(2-(5-chloro-2-(4-methyl-6-oxo-1,6-dihydropyridin-3-ylamino)pyrimidin-4-ylamino)-5-methoxyphenyl)methanesulfonamide] | 100 to 1000 nM
13 | COc1ccc(Nc2nc(Nc3cc(OC)cc(CO)c3OC)ncc2Cl)c(NS(C)(=O)=O)c1 [Example 96, N-(2-((5-chloro-2-((3-(hydroxymethyl)-2,5-dimethoxyphenyl)amino)pyrimidin-4-yl)amino)-5-methoxyphenyl)methanesulfonamide] | 100 to 1000 nM
14 | COc1ccc(Nc2nc(Nc3cccc(OCCC(F)(F)F)c3C)ncc2Cl)c(NS(C)(=O)=O)c1 [Example 98, N-(2-((5-chloro-2-((2-methyl-3-(3,3,3-trifluoropropoxy)phenyl)amino)pyrimidin-4-yl)amino)-5-methoxyphenyl)methanesulfonamide] | 100 to 1000 nM
15 | COc1ccc(Nc2nc(Nc3nc(OC)ccc3Cl)ncc2Cl)c(NS(C)(=O)=O)c1 [Example 99, N-(2-(5-chloro-2-(3-chloro-6-methoxypyridin-2-ylamino)pyrimidin-4-ylamino)-5-methoxyphenyl)methanesulfonamide] | 1000 to 10000 nM

More lines, now with the values ahead:

Row | IC50 | SMILES
16 | 100 to 1000 nM | COc1ccc(Nc2nc(Nc3ccc(F)cc3C)ncc2Cl)c(NS(C)(=O)=O)c1 [Example 45, N-(2-(5-chloro-2-(4-fluoro-2-methylphenylamino)pyrimidin-4-ylamino)-5-methoxyphenyl)methanesulfonamide]
17 | 100 to 1000 nM | COc1ccc(Nc2nc(Nc3cc(OC)c(C)cc3OC)ncc2Cl)c(NS(C)(=O)=O)c1 [Example 47, N-(2-(5-chloro-2-(2,5-dimethoxy-4-methylphenylamino)pyrimidin-4-ylamino)-5-methoxyphenyl)methanesulfonamide]
18 | 100 to 1000 nM | COc1ccc(Nc2nc(Nc3ccccc3F)ncc2Cl)c(NS(C)(=O)=O)c1 [Example 48, N-(2-(5-chloro-2-(2-fluorophenylamino)pyrimidin-4-ylamino)-5-methoxyphenyl)methanesulfonamide]
19 | 100 to 1000 nM | COc1ccc(Nc2nc(Nc3cc(C)ccc3F)ncc2Cl)c(NS(C)(=O)=O)c1 [Example 49, N-(2-(5-chloro-2-(2-fluoro-5-methylphenylamino)pyrimidin-4-ylamino)-5-methoxyphenyl)methanesulfonamide]
20 | 100 to 1000 nM | COc1ccc(Nc2nc(Nc3ccccc3C)ncc2Cl)c(NS(C)(=O)=O)c1 [Example 50, N-(2-(5-chloro-2-(o-tolylamino)pyrimidin-4-ylamino)-5-methoxyphenyl)methanesulfonamide hydrochloride]
21 | 100 to 1000 nM | COc1ccc(Nc2nc(Nc3ccccc3OC)ncc2Cl)c(NS(C)(=O)=O)c1 [Example 51, N-(2-(5-chloro-2-(2-methoxyphenylamino)pyrimidin-4-ylamino)-5-methoxyphenyl)methanesulfonamide hydrochloride]
22 | 100 to 1000 nM | COc1ccc(Nc2nc(Nc3cccc(C)c3C)ncc2Cl)c(NS(C)(=O)=O)c1 [Example 52, N-(2-(5-chloro-2-(2,3-dimethylphenylamino)pyrimidin-4-ylamino)-5-methoxyphenyl)methanesulfonamide]
23 | ≤ 100 nM | COc1ccc(Nc2nc(Nc3cnc(O)cc3OC)ncc2Cl)c(NS(C)(=O)=O)c1 [Example 78, N-(2-(5-chloro-2-(6-hydroxy-4-methoxypyridin-3-ylamino)pyrimidin-4-ylamino)-5-methoxyphenyl)methanesulfonamide]
24 | ≤ 100 nM | COc1ccc(Nc2nc(Nc3ccc(OCC(N)=O)cc3C)ncc2Cl)c(NS(C)(=O)=O)c1 [Example 90, 2-(4-((5-chloro-4-((4-methoxy-2-(methylsulfonamido)phenyl)amino)pyrimidin-2-yl)amino)-3-methylphenoxy)acetamide]
25 | ≤ 100 nM | COc1ccc(Nc2nc(Nc3cc(OC)c(CC(=O)O)cc3OC)ncc2Cl)c(NS(C)(=O)=O)c1 [Example 100, 2-(4-((5-chloro-4-((4-methoxy-2-(methylsulfonamido)phenyl)amino)pyrimidin-2-yl)amino)-2,5-dimethoxyphenyl)acetic acid]
